Data published in patent US20090004112A1, “METHODS FOR THE TREATMENT OF NEURODEGENERATIVE DISEASES USING NMDA RECEPTOR GLYCINE SITE ANTAGONISTS” (THE TRUSTEES OF COLUMBIA UNIVERSITY IN THE CITY OF NEW YORK, priority 2006, published 2009).

Tests used:
[1] = test system: wild-type LRRK2 overexpressing cells; assay: Process length in wild-type LRRK2 overexpressing primary cortical neurons; assay type: cell-based, rat; conditions: 10 μM
Source text: FIGS. 8A-8B. […] N=25 for each group. […] N=10 for each group.
Cell Culture and Transfection.

[2] = test system: PD-associated LRRK2 mutant; assay: Formation of LC3-GFP labeled aggregates in neurites / PD-associated LRRK2 pathology; assay type: cell-based
Source text: A method is disclosed for treating a neurodegenerative disease, for example, Parkinson's Disease associated with a mutant of leucine-rich repeat kinase-2 (LRRK2), with NMDA antagonists. The methods include assessing accumulation of LC3-GFP labeled aggregates. The methods may be carried out on primary neurons in vitro in a cell culture, or in vivo in an animal. In one embodiment, the cell is a post-mitotic neuron. In another embodiment, the post-mitotic neuron is a cortical neuron, a dopamine neuron, or a sympathetic neuron.
Mutations in LRRK2 underlie an autosomal dominant, inherited form of Parkinson's disease (PD) that mimics all of the clinical features of the common sporadic form of PD. The LRRK2 protein includes putative GTPase, protein kinase, WD40 repeat, and leucine rich repeat (LRR) domains of unknown function.

Row | SMILES | process length in wild-type LRRK2 overexpressing cells [1] | PD-associated LRRK2 pathology [2] | formation of LC3-GFP labeled aggregates in neurites [2]
1 | NC1(C(=O)O)CCC1 [1-aminocyclobutane carboxylic acid] | do not alter process length | – | –
2 | O=c1c(-c2cccc(Oc3ccccc3)c2)c(O)[nH]c2cc(Cl)ccc12 [L-701,324, 7-chloro-2-hydroxy-3-[3-(phenoxy)phenyl]-1H-quinolin-4-one] | – | ameliorated | ameliorated
3 | O=C1CC(c2ccccc2)Oc2ccccc21 (stereo not shown) [flavanone] | do not alter process length | – | –
4 | N[C@@H](CCC(=O)N[C@@H](CS)C(=O)NCC(=O)O)C(=O)O [glutathione] | do not alter process length | – | –
5 | Oc1ccc(O)cc1 [hydroquinone] | do not alter process length | – | –
6 | Nc1ccccc1C(=O)CC(N)C(=O)O (stereo not shown) [kynurenine] | do not alter process length | – | –
